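Method: 48-hour compound exposure of cells in 96-well plates, five concentrations, linear interpolation of endpoints. The concentration for 50% growth inhibition is given as GI50.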 Calls of active or inactive are those of the source. Cut-off read from the data, not from the text of the source: active = GI50 up to about 1.1 µM and inactive = higher.
Legend:
Test in all cases: inhibition of tumour cell growth, NCI panel, 48 h
OVCAR-3 = test system: OVCAR-3
RXF 393 = test system: RXF 393
SN12C = test system: SN12C
OVCAR-4 = test system: OVCAR-4
786-0 = test system: 786-0
SK-OV-3 = test system: SK-OV-3
MDA-MB-435 = test system: MDA-MB-435
SK-MEL-5 = test system: SK-MEL-5
SF-295 = test system: SF-295
BT-549 = test system: BT-549
NCI-H460 = test system: NCI-H460
U-251 = test system: U-251
TK-10 = test system: TK-10
HOP-92 = test system: HOP-92
A549 = test system: A549
CAKI-1 = test system: CAKI-1
CCRF-CEM = test system: CCRF-CEM
MDA-N = test system: MDA-N
SNB-75 = test system: SNB-75

Question: What does the source list for `Nc1nc(N)c(-c2cccc(C(F)(F)F)c2)c(Cc2cccc(C(F)(F)F)c2)n1`?
Answer: GI50 (OVCAR-3): 6.03 µM (inactive); GI50 (RXF 393): 3.34 µM (inactive); GI50 (SN12C): 3.54 µM (inactive); GI50 (OVCAR-4): 12.2 µM (inactive); GI50 (786-0): 0.841 µM (active); GI50 (SK-OV-3): 8.97 µM (inactive); GI50 (MDA-MB-435): 2.96 µM (inactive); GI50 (SK-MEL-5): 2.98 µM (inactive); GI50 (SF-295): 1.52 µM (inactive); GI50 (BT-549): 10.2 µM (inactive); GI50 (NCI-H460): 0.604 µM (active); GI50 (U-251): 15.7 µM (inactive); GI50 (TK-10): 7.67 µM (inactive); GI50 (HOP-92): 12.2 µM (inactive); GI50 (A549): 0.628 µM (active); GI50 (CAKI-1): 7.23 µM (inactive); GI50 (CCRF-CEM): 6.92 µM (inactive); GI50 (MDA-N): 0.689 µM (active); GI50 (SNB-75): 13.6 µM (inactive)

Question: Which results are given for `NCCC1([N+](=O)[O-])CCNCC1`?
Answer: GI50 (OVCAR-3): > 100 µM (inactive); GI50 (RXF 393): > 100 µM (inactive); GI50 (SN12C): > 100 µM (inactive); GI50 (OVCAR-4): > 100 µM (inactive); GI50 (786-0): > 100 µM (inactive); GI50 (SK-OV-3): > 100 µM (inactive); GI50 (MDA-MB-435): > 100 µM (inactive); GI50 (SK-MEL-5): > 100 µM (inactive); GI50 (SF-295): > 100 µM (inactive); GI50 (BT-549): > 100 µM (inactive); GI50 (NCI-H460): > 100 µM (inactive); GI50 (U-251): > 100 µM (inactive); GI50 (TK-10): > 100 µM (inactive); GI50 (HOP-92): > 100 µM (inactive); GI50 (A549): > 100 µM (inactive); GI50 (CAKI-1): > 100 µM (inactive); GI50 (CCRF-CEM): > 100 µM (inactive); GI50 (MDA-N): > 100 µM (inactive); GI50 (SNB-75): > 100 µM (inactive)

Question: `COC(=O)/C=C/c1ccc(OP(=O)(O)O)c(OC)c1` was tested. Which GI50 (OVCAR-3) did it give?
Answer: > 100 µM (inactive)

Question: And the GI50 (RXF 393)?
Answer: > 100 µM (inactive)

Question: What about the GI50 (SN12C) of the same compound?
Answer: > 100 µM (inactive)

Question: And the GI50 (OVCAR-4)?
Answer: > 100 µM (inactive)

Question: And the GI50 (786-0)?
Answer: > 100 µM (inactive)

Question: What about the GI50 (SK-OV-3) of the same compound?
Answer: > 100 µM (inactive)

Question: What about the GI50 (MDA-MB-435) of the same compound?
Answer: > 100 µM (inactive)

Question: And the GI50 (SK-MEL-5)?
Answer: > 100 µM (inactive)

Question: And the GI50 (SF-295)?
Answer: > 100 µM (inactive)

Question: What about the GI50 (BT-549) of the same compound?
Answer: > 100 µM (inactive)

Question: What about the GI50 (NCI-H460) of the same compound?
Answer: > 100 µM (inactive)

Question: What about the GI50 (U-251) of the same compound?
Answer: > 100 µM (inactive)

Question: What about the GI50 (TK-10) of the same compound?
Answer: > 100 µM (inactive)

Question: What about the GI50 (HOP-92) of the same compound?
Answer: > 100 µM (inactive)

Question: What about the GI50 (A549) of the same compound?
Answer: > 100 µM (inactive)

Question: What about the GI50 (CAKI-1) of the same compound?
Answer: > 100 µM (inactive)

Question: And the GI50 (CCRF-CEM)?
Answer: > 100 µM (inactive)

Question: And the GI50 (MDA-N)?
Answer: > 100 µM (inactive)

Question: What about the GI50 (SNB-75) of the same compound?
Answer: > 100 µM (inactive)

Question: With `Nc1nncc2[nH]cnc12` as the compound, how does the GI50 (OVCAR-3) read?
Answer: > 100 µM (inactive)

Question: And the GI50 (RXF 393)?
Answer: > 100 µM (inactive)

Question: And the GI50 (SN12C)?
Answer: > 79.4 µM (inactive)

Question: And the GI50 (OVCAR-4)?
Answer: > 100 µM (inactive)

Question: And the GI50 (786-0)?
Answer: 48.3 µM (inactive)

Question: And the GI50 (SK-OV-3)?
Answer: 41.5 µM (inactive)

Question: And the GI50 (MDA-MB-435)?
Answer: > 74.3 µM (inactive)

Question: And the GI50 (SK-MEL-5)?
Answer: 24.2 µM (inactive)

Question: What about the GI50 (SF-295) of the same compound?
Answer: 42.8 µM (inactive)

Question: What about the GI50 (BT-549) of the same compound?
Answer: 26.9 µM (inactive)

Question: And the GI50 (NCI-H460)?
Answer: 90.6 µM (inactive)

Question: What about the GI50 (U-251) of the same compound?
Answer: > 64.3 µM (inactive)

Question: And the GI50 (TK-10)?
Answer: > 50.1 µM (inactive)

Question: And the GI50 (HOP-92)?
Answer: > 100 µM (inactive)

Question: And the GI50 (A549)?
Answer: 44.7 µM (inactive)

Question: And the GI50 (CAKI-1)?
Answer: 66.2 µM (inactive)

Question: What about the GI50 (CCRF-CEM) of the same compound?
Answer: 5.09 µM (inactive)

Question: What about the GI50 (MDA-N) of the same compound?
Answer: 49.5 µM (inactive)

Question: What about the GI50 (SNB-75) of the same compound?
Answer: > 56.9 µM (inactive)

Question: With `Fc1cc(F)c(F)c(S)c1F` as the compound, how does the GI50 (OVCAR-3) read?
Answer: > 100 µM (inactive)

Question: What about the GI50 (RXF 393) of the same compound?
Answer: 23.7 µM (inactive)

Question: And the GI50 (SN12C)?
Answer: 20.4 µM (inactive)

Question: What about the GI50 (OVCAR-4) of the same compound?
Answer: 62.4 µM (inactive)

Question: And the GI50 (786-0)?
Answer: > 100 µM (inactive)

Question: And the GI50 (SK-OV-3)?
Answer: 65.6 µM (inactive)

Question: What about the GI50 (MDA-MB-435) of the same compound?
Answer: > 100 µM (inactive)

Question: What about the GI50 (SK-MEL-5) of the same compound?
Answer: > 100 µM (inactive)

Question: And the GI50 (SF-295)?
Answer: > 100 µM (inactive)

Question: And the GI50 (BT-549)?
Answer: 26 µM (inactive)

Question: And the GI50 (NCI-H460)?
Answer: > 100 µM (inactive)

Question: And the GI50 (U-251)?
Answer: > 100 µM (inactive)

Question: And the GI50 (TK-10)?
Answer: > 100 µM (inactive)

Question: And the GI50 (HOP-92)?
Answer: > 100 µM (inactive)

Question: And the GI50 (A549)?
Answer: 36.6 µM (inactive)

Question: What about the GI50 (CAKI-1) of the same compound?
Answer: > 100 µM (inactive)

Question: And the GI50 (CCRF-CEM)?
Answer: 29.5 µM (inactive)

Question: What about the GI50 (MDA-N) of the same compound?
Answer: > 100 µM (inactive)

Question: And the GI50 (SNB-75)?
Answer: > 100 µM (inactive)

Question: What does the source list for `CC(C)(C)C(=O)CP(=O)(O)O`?
Answer: GI50 (OVCAR-3): > 100 µM (inactive); GI50 (RXF 393): > 100 µM (inactive); GI50 (SN12C): > 100 µM (inactive); GI50 (OVCAR-4): > 100 µM (inactive); GI50 (786-0): > 100 µM (inactive); GI50 (SK-OV-3): > 100 µM (inactive); GI50 (MDA-MB-435): > 100 µM (inactive); GI50 (SK-MEL-5): > 100 µM (inactive); GI50 (SF-295): > 100 µM (inactive); GI50 (BT-549): > 100 µM (inactive); GI50 (NCI-H460): > 100 µM (inactive); GI50 (U-251): > 100 µM (inactive); GI50 (TK-10): > 100 µM (inactive); GI50 (HOP-92): > 100 µM (inactive); GI50 (A549): > 100 µM (inactive); GI50 (CAKI-1): > 100 µM (inactive); GI50 (CCRF-CEM): > 100 µM (inactive); GI50 (MDA-N): > 100 µM (inactive); GI50 (SNB-75): > 100 µM (inactive)

From ChEMBL document CHEMBL1201862, “PubChem BioAssay data set” (2004)
